# Measurements reported in ChEMBL document CHEMBL5604062, “ASAP - ZIKV NS2B-NS3 protease fluorescence dose response” (2024).
# Values joined by “and” are separate entries in the source; they are usually repeats but may differ in a detail not shown here. Equal values may be shown once.
# Biological target: Nonstructural protein 3 (Zika virus, UniProt A0A024AXB9)
# Assay: Functional biochemical assay to identify treatments for viral infectious disease that targets Zika NS2B-NS3 protease. Utilizing a direct enzyme activity measurement method, reading the fluorescence intensity is used to characterize the relative potency of inhibitors as IC50.
# Parameters: species or system PRVABC59
# Chain of Nonstructural protein 3 (A0A024AXB9 whole entry): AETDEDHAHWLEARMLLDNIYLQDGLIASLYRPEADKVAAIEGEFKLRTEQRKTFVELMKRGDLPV
row,Structure (SMILES),IC50
1,NC[C@@H]1CN(c2cc(-c3ccc(N)nc3)cc3c2COB3O)C(=O)O1,> 99.5 µM
2,c1ccc2c(CN[C@H]3CCc4ncsc4C3)n[nH]c2c1,> 99.5 µM
3,O=C(Nc1cc([C@H]2CCOC2)ccn1)c1cc(Cl)cc2[nH]ncc12,> 25 µM
4,CO[C@H](C)Cn1cc2c(C(=O)Nc3ccc4c(c3)CNC4)cc(Cl)cc2n1,0.364 µM
5,C[C@@H](Cc1c[nH]c2ccccc12)N1CCC(c2nc3ccccc3s2)CC1,> 99.5 µM
6,CCn1c(=O)c(N2CC[C@]3(CCNC3=O)C2)nc2ccccc21,> 99.5 µM
7,CCc1nc(C(=O)Nc2cccc(CN)c2)nn1-c1c(Cl)cccc1Cl,> 99.5 µM
8,NC1CN(c2ncccc2NS(=O)(=O)c2ccc(Oc3ccccc3Cl)cc2)C1,> 99.5 µM
9,NCc1ccc(Oc2ccc(S(=O)(=O)Nc3ccc(Cl)cc3C(=O)NCC(F)(F)F)cc2)cc1,> 99.5 µM
10,Cc1cccc(-c2ccc([C@@H](NC(=O)OCc3ccccc3)C(=O)Nc3cccc(CN)c3)cc2)c1,7.4 µM
11,CCc1ccccc1COc1ccc(S(=O)(=O)Nc2ccc(Cl)cc2C(=O)O)cc1,12.6 µM
12,Cc1nc(-c2ccc([C@@H](NC(=O)OCc3ccccc3)C(=O)Nc3cccc(CN)c3)cc2)cs1,> 99.5 µM
13,O=C1Cc2c(cccc2C(=O)Nc2ccc(Cl)c(CO)n2)N1,> 25 µM
14,CC(C)NC(=O)[C@H](Nc1ccc2c(c1)CNC2)c1cccc2cn[nH]c12,10.9 µM
15,O=C(Nc1cc(-c2cccnc2)ccn1)c1cc2n(c1)CCC2,> 25 µM
16,C[C@H]1C[C@@H](C(=O)Nc2cccc(CN)c2)CCO1,> 99.5 µM
17,O=C(Nc1cc(Cl)cc(C(=O)N2CCC(c3nn[nH]n3)CC2)c1)OCc1ccccc1,> 99.5 µM
18,c1ccc2c(CN3CCCc4cnccc4C3)n[nH]c2c1,> 99.5 µM
19,O=C(Nc1cc([C@H]2CCOC2)ccn1)c1ccc2scnc2c1,> 25 µM
20,O=C(Nc1ccc2c(c1)CNC2)c1cc(F)cc2[nH]c(CCc3cccnc3)nc12,0.131 µM
21,Cn1nnc(S(=O)(=O)N2CCC([C@H](NC(=O)OCc3ccccc3)C(=O)Nc3cccc(CN)c3)CC2)n1,> 99.5 µM
22,NC[C@]1(F)C[C@@H](NC(=O)c2cc(Cl)cc(NC(=O)OCc3ccccc3)c2)C1,68.6 µM
23,O=C(O)Cn1ncc2cc(-c3cc(Cl)cc(NC(=O)OCc4ccccc4)c3)ccc21,45.2 µM
24,O=C(O)c1cc(OC2CCOCC2)c(F)cc1NS(=O)(=O)c1ccc(Oc2ccccc2Cl)cc1,37 µM
25,CCCn1cc(-c2cc(Cl)cc(NC(=O)OCc3ccccc3)c2)c(C(=O)O)n1,> 99.5 µM
26,COc1ccc(-n2nnnc2SC(F)F)cc1,> 99.5 µM

row,Structure (SMILES),IC50
1,O=c1c2cccn2cnn1Cc1cnc(Cl)s1,> 99.5 µM
2,NCc1cc(C(=O)N[C@H]2CCCOC2)cc([C@@H]2C[C@H]2c2cc(Cl)cc(NC(=O)OCc3ccccc3)c2)c1,11.4 µM
3,NCc1cccc(NC(=O)c2cc(NC(=O)OCc3ccccc3)cc(C3CC3)c2)c1,22.1 µM
4,NCc1cccc(NC(=O)c2cc(Cl)cc(Cl)c2O)c1,> 99.5 µM
5,CCn1c(=O)c(N2C[C@@H]3CS(=O)(=O)C[C@@H]3C2)nc2ccccc21,> 99.5 µM
6,N[C@@H](CCO)c1cccc(NC(=O)c2cc(Cl)cc(NC(=O)OCc3ccccc3)c2)c1,39.7 µM
7,NCc1cccc(NC(=O)c2cc(NC(=O)OCc3ccccc3)cc3c2OCCO3)c1,89.6 µM
8,CCn1ccnc(-n2cc([C@@H]3NC(=O)NC3=O)c3ccccc32)c1=O,> 99.5 µM
9,Cc1c(C(=O)Nc2cccc(-c3ccc(=O)[nH]n3)c2)cc(C2CC2)n1C,> 25 µM
10,NCc1cccc(NC(=O)[C@H]2c3ccc(Br)cc3OCCN2C(=O)OCc2ccccc2)c1,> 99.5 µM
11,COc1ccccc1-c1ccc(S(=O)(=O)Nc2ccc(Cl)cc2C(=O)O)cc1,37.6 µM
12,COc1ccc([C@@H]2C[C@H]2NC(=O)c2cccc3c2CC(=O)N3)cc1,> 25 µM
13,N[C@H]1CCc2ncc(NS(=O)(=O)c3ccc(Oc4ccccc4Cl)cc3)cc2C1,> 99.5 µM
14,NCc1cccc(/C=C/c2cc(Cl)cc(NC(=O)OCc3ccccc3)c2)c1,22.3 µM
15,CC(=O)Nc1cc(Br)cc(C(=O)Nc2ccc3c(c2)CNC3)c1,0.082 µM and 0.069 µM
16,Cn1cc(CNC(=O)[C@H](Nc2ccc3c(c2)CNC3)c2cc(Cl)cc(C3CC3)c2)cn1,0.085 µM and 0.065 µM
17,COc1nnc(C(F)(F)F)cc1-c1ccc2[nH]c(C(=O)O)cc2c1,> 99.5 µM
18,O=C(N[C@@H](C(=O)Nc1ccccn1)c1ccc(OCc2ccccc2)cc1)OCc1ccccc1,> 99.5 µM
19,C[C@H]1CN(C)C[C@H](C(=O)Nc2cccc(CN)c2)O1,> 99.5 µM
20,CC1CCN(CC[C@H]2CCCN2C(=O)Nc2ccc3c(c2)CNC3)CC1,> 25 µM
21,COc1ccc(F)cc1-c1ccc(S(=O)(=O)Nc2cc(Cl)cc(C(=O)O)c2)cc1,> 99.5 µM
22,O=C(Nc1cc(Cl)cc(C(=O)Nc2cncc(C(=O)O)c2)c1)OCc1ccccc1,> 99.5 µM
23,C#C[C@H](Nc1cccc(C(=O)O)c1)c1cc(Cl)cc2[nH]ncc12,> 99.5 µM
24,CC(C)c1noc2nc(C3CC3)cc(C(=O)Nc3cccc(CN)c3)c12,> 99.5 µM
25,CCC[C@H](Oc1ccc(Cl)cc1C)C(=O)Nc1cccc(CN)c1,> 99.5 µM
26,C=CC[C@H](Nc1cccc(CN)n1)c1cc(Cl)cc(NC(=O)OCc2ccccc2)c1,25.3 µM

row,Structure (SMILES),IC50
1,NCc1cccc(NC(=O)c2cc(Cl)cc3c2cnn3CC2CC2)c1,3.05 µM
2,COc1cc(Cl)cc([C@H](Nc2ccc3c(c2)CNC3)C(=O)NCC(F)F)c1,0.033 µM and 0.021 µM
3,CC(C)(C)OC(=O)NCc1cccc(NC(=O)[C@H](NC(=O)OCc2ccccc2)C2CCNCC2)c1,> 99.5 µM
4,Cn1c(=O)[nH]c2cc(C(=O)Nc3ccc4c(c3)CNC4)cc(Br)c21,6.85 µM
5,O=C(Nc1cc(-c2cccnc2)ccn1)c1cnc(C2CC2)s1,> 25 µM
6,c1nnc(SCCCSc2nncs2)s1,> 99.5 µM
7,NC[C@@H]1CN(c2cc(N3CC[C@H](N)C3)cc3c2COB3O)C(=O)O1,72 µM
8,C[C@H](NC(=O)c1cccc2c1CC(=O)N2)c1cc2cnccc2o1,> 25 µM
9,NCc1cc(C(=O)N2CCNC(=O)C2)cc([C@@H]2C[C@H]2c2cc(Cl)cc(NC(=O)OCc3ccccc3)c2)c1,14.6 µM
10,CCn1c(=O)c(N2C[C@H]3C[C@@H](O)CC[C@H]3C2)nc2ccccc21,> 99.5 µM
11,O=C(Nc1ccc2c(c1)C(=O)OC2)c1cc(CC2CCNCC2)ccc1F,> 25 µM
12,CN(C)c1cc(-c2ccc(S(=O)(=O)Nc3ccc(Cl)cc3C(=O)O)cc2)ccn1,> 99.5 µM
13,CC[C@@H](Cc1nnn[nH]1)c1ccc(NC(=O)c2cc(Cl)cc(NC(=O)OCc3ccccc3)c2)cc1,18.7 µM
14,O=C(Nc1ccc2c(c1)CNC2)c1cc(Cl)cc2ccccc12,0.113 µM
15,CC(F)(F)c1cccc(NC(=O)c2cc(Cl)cc(NC(=O)OCc3ccccc3)c2)c1,> 99.5 µM
16,O=C(Nc1ccc2c(c1)CNC2)c1cncc(-c2ccccc2)c1,14.7 µM
17,COc1ccc([C@H]2C[C@H](C)CN2C(=O)Nc2ccc3c(c2)CNC3)cc1,> 25 µM
18,NCc1cccc(NC(=O)[C@H]2CC(=O)Nc3ccc(Br)cc32)c1,> 99.5 µM
19,CC[C@H](Cc1nnn[nH]1)c1ccc(NC(=O)c2cc(Cl)cc(C3CC3)c2)cc1,> 99.5 µM
20,NCc1cccc(NC(=O)C[C@H](NC(=O)OCc2ccccc2)c2ccc(OC(F)(F)F)cc2)c1,33.9 µM and 39.5 µM
21,O=C(Nc1ccc2c(c1)CNC2)N1CCC[C@H](CC2CCC2)C1,> 25 µM
22,O=C1Cc2c(cccc2C(=O)Nc2ccc(-c3cccnc3)cn2)N1,> 25 µM
23,NCc1cccc(NC(=O)Cc2cccc(Oc3ccncc3Br)c2)c1,> 99.5 µM
24,COc1ccc(NS(=O)(=O)c2ccc(Cl)cc2C(=O)O)cc1OC1CCCC1,> 99.5 µM
25,CCn1c(=O)c(N2CC3(CCCCC3)C[C@H]2CO)nc2ccccc21,> 99.5 µM
26,NCc1cccc(NC(=O)[C@@H](NC(=O)OCc2ccccc2)c2ccc(-c3cc4cccnc4s3)cc2)c1,3.56 µM

row,Structure (SMILES),IC50
1,NCCCCc1ccc(NC(=O)c2cc(Cl)cc(NC(=O)OCc3ccccc3)c2)cc1,5.42 µM
2,NCc1cccc(CNC(=O)[C@@H](NC(=O)OCc2ccccc2)c2ccc(OCc3ccccc3)cc2)n1,65.6 µM
3,CCOC(=O)c1ncoc1CNC(=O)[C@H](Nc1ccc2c(c1)CNC2)c1cc(Cl)cc(C2CC2)c1,0.297 µM
4,O=C(O)c1cc2cc(-c3cccc([C@H]4CCOC4)n3)ccc2[nH]1,> 99.5 µM
5,CCn1ccnc(N2CC[C@H](c3c[nH]c4ccccc34)C2)c1=O,> 99.5 µM
6,NCc1ccc(-c2ncc(OCC3CCNCC3)nc2-c2ccc(C3CCOCC3)cc2)cc1,> 99.5 µM
7,CCn1ccnc(N2C[C@H](c3c[nH]c4ccccc34)[C@H](N3C(=O)c4ccccc4C3=O)C2)c1=O,> 99.5 µM
8,CCCNC(=O)Cn1ccnc(N2CC[C@H](CO)C2)c1=O,> 99.5 µM
9,CCNC(=O)Nc1cc(Cl)cc(C(=O)Nc2cc(C)cc(CN)c2)c1,0.676 µM
10,O=C(O)c1cc(Cl)ccc1NS(=O)(=O)c1ccc(-c2cccnc2)cc1,> 99.5 µM
11,CN(CCS(N)(=O)=O)C(=O)c1cc(Cl)ccc1NS(=O)(=O)c1ccc(Oc2ccccc2Cl)cc1,> 99.5 µM
12,O=C(O)c1cc(Cl)ccc1NS(=O)(=O)c1ccc(-c2cccc(F)c2F)cc1,25.7 µM
13,COc1cc(Br)ccc1[C@@H](NC(=O)OCc1ccccc1)C(=O)Nc1cccc(CN)c1,68.9 µM
14,CC(C)(C)Cn1c(=O)[nH]c2cccc(C(=O)Nc3cccc(CN)c3)c21,37.2 µM
15,O=C(Nc1nc(O)c2c(n1)CNC2)c1cc(Cl)cc2[nH]ncc12,8.43 µM
16,Fc1cccc(F)c1-c1n[nH]cc1CN1CCC(c2nc3ccccc3s2)CC1,> 99.5 µM
17,O=C(Nc1ccc2c(c1)CNC2)c1cccc2cn[nH]c12,0.207 µM and 0.615 µM
18,CC(C)N1C(=O)C[C@H](C(=O)Nc2cccc(CN)c2)[C@H]1c1ccc(Cl)c(F)c1,> 99.5 µM
19,COc1cc(C(=O)Nc2cnc3ccccc3c2)nc(N2CCNCC2)n1,> 99.5 µM
20,NCc1ccc(CNC(=O)c2cc(Cl)cc(NC(=O)OCc3ccccc3)c2)c(F)c1,32.9 µM
21,O=C(NCC1CCNCC1)c1cc(Cl)cc2[nH]ncc12,74.6 µM
22,O=C(NS(=O)(=O)C1CC1)c1cc(Cl)ccc1NS(=O)(=O)c1ccc(Oc2ccccc2Cl)cc1,19.5 µM
23,CCn1c(=O)c(N2CC[C@H](NC(=O)NC3CC3)C2)nc2ccccc21,> 99.5 µM
24,N#Cc1ccc2[nH]cc(CN3CCC(c4cscn4)CC3)c2c1,17.8 µM
25,O=C(Nc1cc(Cl)cc(C(=O)Nc2cccc([C@H]3CCCN3)c2)c1)OCc1ccccc1,27.6 µM
